Experimental data taken from patent US5252469A, “Process for producing a transglutaminase derived from streptomyces” (Amano Pharmaceutical Co., Ltd., priority 1990, dated 1993).
Where two headings read alike, the source gives them in different places. Peptide text beside a SMILES is read from it. * marks the point of attachment. Cbz = O=C(OCc1ccccc1)*

How the values were obtained:
Format in all cases: biochemical
[1] = target: T1, MTGase (transglutaminase of guinea pig liver) (UniProt P08587); assay: Substrate specificity: reaction of synthetic substrates with hydroxylamine; conditions: Table 9; CBZ-Gln-Gly = 100
T1 construct: The guinea pig liver-derived transglutaminase was prepared by the method described in Connellan et al; from tissue; host or cells: guinea pig liver
T1 sequence (P08587 2-690 limits assumed): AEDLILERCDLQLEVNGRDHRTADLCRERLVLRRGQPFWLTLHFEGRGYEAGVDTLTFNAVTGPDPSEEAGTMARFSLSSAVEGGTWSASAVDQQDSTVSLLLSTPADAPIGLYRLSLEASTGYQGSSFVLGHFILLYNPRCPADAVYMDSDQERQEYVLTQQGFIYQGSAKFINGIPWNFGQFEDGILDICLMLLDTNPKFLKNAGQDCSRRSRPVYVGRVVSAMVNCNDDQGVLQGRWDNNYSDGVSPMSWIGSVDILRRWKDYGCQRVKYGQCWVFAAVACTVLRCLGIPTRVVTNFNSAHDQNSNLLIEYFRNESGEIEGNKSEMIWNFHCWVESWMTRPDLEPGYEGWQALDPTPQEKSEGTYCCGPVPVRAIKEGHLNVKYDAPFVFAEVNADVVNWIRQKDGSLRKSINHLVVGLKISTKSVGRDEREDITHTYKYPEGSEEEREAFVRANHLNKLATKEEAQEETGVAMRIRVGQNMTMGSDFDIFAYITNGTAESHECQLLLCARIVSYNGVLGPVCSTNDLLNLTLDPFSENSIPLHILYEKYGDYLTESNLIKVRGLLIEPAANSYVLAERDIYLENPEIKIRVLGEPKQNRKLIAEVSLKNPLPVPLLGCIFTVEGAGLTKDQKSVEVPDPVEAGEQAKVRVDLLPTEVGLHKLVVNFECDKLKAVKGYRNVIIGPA
Protocol: (§1) Measurement of the activity of BTGase is carried out by performing a reaction using benzyloxycarbonyl-L-glutaminyl glycine and hydroxylamine as substrates in the absence of Ca^2+, forming an iron complex with the resulting hydroxamic acid in the presence of trichloroacetic acid, measuring absorption at 525 nm and determining the amount of hydroxamic acid by a calibration curve to calculate the activity. The BTGase activity is measured by the method described below, unless otherwise indicated.
(§2) To 0.05 ml of an enzyme solution is added 0.5 ml of Reagent A and they are mixed with each other. After reacting at 37° C. for 10 minutes, Reagent B is added thereto to discontinue the reaction and form an Fe complex. Thereafter, absorbance is measured at 525 nm. As a control, absorbance is measured after reacting a previously thermally inactivated enzyme solution in a similar manner and a difference in absorbance between the control and the enzyme solution is measured. Separately, a calibration curve is prepared using L-glutamic acid γ-monohydroxamic acid instead of the enzyme solution, and the amount of hydroxamic acid produced is determined by the difference in absorbance described above. An enzyme activity which produces 1 μmol of hydroxamic acid per 1 minute is defined as 1 unit.
(§3) Using each BTGase, reactions of various synthetic substrates with hydroxylamine were examined. […] In this case, the concentration of various synthetic substrates is 5 mM. In the table, CBZ, Gln, Gly and Asn are abbreviations for benzyloxycarbonyl group, glutaminyl group, glycyl group and asparaginyl group, respectively.
Next, properties of BTGases are compared to those of guinea pig liver-derived transglutaminase. The guinea pig liver-derived transglutaminase was prepared by the method described in Connellan et al., Journal of Biological Chemistry, Vol. 246, No. 4, pp. 1093-1098 (1971). As will be apparent from Tables 9 and 10, various differences in enzymological properties are noted between transglutaminase of guinea pig liver (hereafter, referred to as MTGase) which has been mainly investigated heretofore and BTGases derived from the genus Streptomyces: in particular, differences are noted in temperature stability, molecular weight, isoelectric point and substrate specificity. Further, a difference is noted in that the BTGases of the present invention act in the presence and absence of Ca^2+. Therefore, the respective enzymes of the present invention are different from MTGase in their properties.

[2] = test system: Enzyme No. 83 (transglutaminase of Streptomyces sp No. 83); assay: as above; conditions: for Substrate specificity, Enzyme No. 83 (reactivity of substrate with hydroxylamine): Table 6, synthetic substrate 5 mM; for Substrate specificity, Enzyme No. 83 (reactivity of substrate with hydroxylamine) / Substrate specificity (%), Enzyme No. 83: CBZ-Gln-Gly = 100; for Substrate specificity (%), Enzyme No. 83: Table 9; for Reactivity of synthetic substrate with Enzyme No. 83 (in words): substrate 5 mM, text says BTGase (both enzymes)
Protocol: as §1, §2, §3

[3] = test system: Enzyme No. 466 (transglutaminase of Streptomyces lavendulae No. 466); assay: as above; conditions: for Substrate specificity, Enzyme No. 466 (reactivity of substrate with hydroxylamine): Table 6, synthetic substrate 5 mM; for Substrate specificity, Enzyme No. 466 (reactivity of substrate with hydroxylamine) / Substrate specificity (%), Enzyme No. 466: CBZ-Gln-Gly = 100; for Substrate specificity (%), Enzyme No. 466: Table 9; for Reactivity of synthetic substrate with Enzyme No. 466 (in words): substrate 5 mM, text says BTGase (both enzymes)
Protocol: as §1, §2, §3

[4] = test system: Enzyme No. 83 (transglutaminase of Streptomyces sp No. 83); assay: Influence of metal ions on transglutaminase activity; conditions: for Effect of metal ion on activity of Enzyme No. 83 (in words): 1 mM, text says all BTGases; for Activity of Enzyme No. 83 with metal ion (%): metal ion 1 mM in activity measurement system, None = 100, 10 min
Protocol: as §1
as §2, with “As a control, absorbance is measured after reacting a previously thermally inactivated enzyme solution in a similar manner and a difference in absorbance between the control and the enzyme solution is measured.” left out

[5] = test system: Enzyme No. 466 (transglutaminase of Streptomyces lavendulae No. 466); assay: as above; conditions: for Effect of metal ion on activity of Enzyme No. 466 (in words): 1 mM, text says all BTGases; for Activity of Enzyme No. 466 with metal ion (%): metal ion 1 mM in activity measurement system, None = 100, 10 min
Protocol: as §1
as §2, with “As a control, absorbance is measured after reacting a previously thermally inactivated enzyme solution in a similar manner and a difference in absorbance between the control and the enzyme solution is measured.” left out

[6] = test system: Enzyme No. 83 (transglutaminase of Streptomyces sp No. 83)
Protocol: as §1
as §2, with “As a control, absorbance is measured after reacting a previously thermally inactivated enzyme solution in a similar manner and a difference in absorbance between the control and the enzyme solution is measured.” left out
(§4) Each inhibitor was added in a concentration of 1 mM.

[7] = test system: Enzyme No. 466 (transglutaminase of Streptomyces lavendulae No. 466)
Protocol: as §1
as §2, with “As a control, absorbance is measured after reacting a previously thermally inactivated enzyme solution in a similar manner and a difference in absorbance between the control and the enzyme solution is measured.” left out
as §4

[8] = 1 mM, 25° C. for 30 minutes, text says all BTGases
[9] = inhibitor 1 mM, 25° C. for 30 minutes, None = 100

Compound	Substrate specificity (%), MTGase [1] [%]	Substrate specificity, Enzyme No. 83 (reactivity of substrate with hydroxylamine) [2]	Substrate specificity (%), Enzyme No. 83 [2] [%]	Substrate specificity, Enzyme No. 466 (reactivity of substrate with hydroxylamine) [3]	Substrate specificity (%), Enzyme No. 466 [3] [%]	other results
NC(=O)CC[C@H](NC(=O)OCc1ccccc1)C(=O)O [CBZ--Gln, benzyloxycarbonyl glutamine]	0	0	0	0	0	Reactivity of synthetic substrate with Enzyme No. 83 (in words) [2]: No BTGase reacts; Reactivity of synthetic substrate with Enzyme No. 466 (in words) [3]: No BTGase reacts
NC(=O)CC[C@H](NC(=O)OCc1ccccc1)C(=O)NCC(=O)O [CBZ--Gln--Gly, benzyloxycarbonylglutaminyl glycine] (Cbz-Gln-Gly-OH)	100	100	100	100	100	Reactivity of synthetic substrate with Enzyme No. 83 (in words) [2]: highest; Reactivity of synthetic substrate with Enzyme No. 466 (in words) [3]: highest
[Cl][Cu][Cl] [CuCl2]	–	–	–	–	–	Effect of metal ion on activity of Enzyme No. 83 (in words) [4]: inhibited; Activity of Enzyme No. 83 with metal ion (%) [4]: 89%; Effect of metal ion on activity of Enzyme No. 466 (in words) [5]: inhibited; Activity of Enzyme No. 466 with metal ion (%) [5]: 90%
CCOC(=O)CNC(=O)[C@H](CCC(N)=O)NC(=O)OCc1ccccc1 [CBZ--Gln--Gly--OEt] (Cbz-Gln-Gly-OEt)	122	61	61	65	65	–
[Cl][Pb][Cl] [PbCl2]	–	–	–	–	–	Effect of metal ion on activity of Enzyme No. 83 (in words) [4]: inhibited; Activity of Enzyme No. 83 with metal ion (%) [4]: 59%; Effect of metal ion on activity of Enzyme No. 466 (in words) [5]: inhibited; Activity of Enzyme No. 466 with metal ion (%) [5]: 32%
NCC(=O)N[C@@H](CCC(N)=O)C(=O)NCC(=O)O [Gly--Gln--Gly, glycylglutaminyl glycine] (H-Gly-Gln-Gly-OH)	0	0	0	0	0	Reactivity of synthetic substrate with Enzyme No. 83 (in words) [2]: No BTGase reacts; Reactivity of synthetic substrate with Enzyme No. 466 (in words) [3]: No BTGase reacts
O=C(O)c1cc[c]([Hg][Cl])cc1 [PCMB, p-chloromercury benzoic acid]	–	–	–	–	–	Effect of inhibitor on activity of Enzyme No. 83 (in words) [6, 8]: inhibited; Activity of Enzyme No. 83 with inhibitor [6, 9]: 86; Effect of inhibitor on activity of Enzyme No. 466 (in words) [7, 8]: inhibited; Activity of Enzyme No. 466 with inhibitor [7, 9]: 28
O=C(O)CN(CCN(CC(=O)O)CC(=O)O)CC(=O)O [EDTA]	–	–	–	–	–	Activity of Enzyme No. 83 with inhibitor [6]: 103; Activity of Enzyme No. 466 with inhibitor [7]: 108
NC(=O)CC[C@H](NC(=O)CNC(=O)OCc1ccccc1)C(=O)NCC(=O)NCC(=O)O [CBZ--Gly--Gln--Gly--Gly] (Cbz-GQGG-OH)	126	10	10	18	18	–
NC(=O)CC[C@H](NC(=O)OCc1ccccc1)C(=O)N[C@@H](CCC(N)=O)C(=O)NCC(=O)O [CBZ--Gln--Gln--Gly] (Cbz-Gln-Gln-Gly-OH)	288	49	49	35	35	–
[Cl][Fe]([Cl])[Cl] [FeCl3]	–	–	–	–	–	Activity of Enzyme No. 83 with metal ion (%) [4]: 93%; Activity of Enzyme No. 466 with metal ion (%) [5]: 97%
